Experimental data reported in patent publication US11535621B2, “Heterobicyclic amides as inhibitors of CD38” (Ribon Therapeutics, Inc., priority 2019, dated 2022).

target: Human CD38 (Homo sapiens (Human), UniProt P28907); experiment: CD38 enzyme assay; type: biochemical; conditions: 2 nM CD38, NAD+ substrate, absorbance at 405 nm
Source text: [formula] where SUBcmpd is the subtracted value for the individual compound treated well, SUBmin is the average of the subtracted values of the 4-(((1r,4r)-4-(2-methoxyethoxy)cyclohexyl)amino)-1-methyl-6-(thiazol-5-yl)quinolin-2(1H)-one positive control wells and SUBmax is the average of the subtracted values of the DMSO negative control wells.
The % inhibition values were plotted as a function of compound concentration and the following 4-parameter fit was applied to derive the IC50 values:
[formula] where top and bottom are normally allowed to float, but may be fixed at 100 or 0 respectively in a 3-parameter fit. The Hill Coefficient is normally allowed to float but may also be fixed at 1 in a 3-parameter fit. Y is the % inhibition and X is the compound concentration.

Chain of Human CD38 (P28907 whole entry): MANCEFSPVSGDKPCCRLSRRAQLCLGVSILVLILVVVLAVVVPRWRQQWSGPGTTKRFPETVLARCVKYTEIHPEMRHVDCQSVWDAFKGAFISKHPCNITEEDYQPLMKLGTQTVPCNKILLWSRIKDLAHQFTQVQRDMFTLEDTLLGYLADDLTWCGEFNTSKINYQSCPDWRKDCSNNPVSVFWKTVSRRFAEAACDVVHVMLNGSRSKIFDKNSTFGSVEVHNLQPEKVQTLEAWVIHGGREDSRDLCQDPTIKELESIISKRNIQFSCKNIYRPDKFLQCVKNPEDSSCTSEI

Row | SMILES | IC50
1 | COCCO[C@H]1CC[C@H](NC(=O)c2cc(-n3ccnc3)nc3ccsc23)CC1 [Example 24, 5-(1H-Imidazol-1-yl)-N-((1r,4r)-4-(2-methoxyethoxy)cyclohexyl)thieno[3,2-b]pyridine-7-carboxamide] | 10 to 100 nM
2 | N#C[C@H]1CC[C@H](NC(=O)c2nc(-n3ccnc3)nc3cc[nH]c23)CC1 [Example 148] | < 10 nM
3 | O=C(N[C@H]1CC[C@@H](O)CC1)c1nc(-n2ccnc2)nc2cc[nH]c12 [Example 186] | 10 to 100 nM
4 | O=C(N[C@H]1CC[C@H](NCC(F)F)CC1)c1nc(-n2ccnc2)cc2ccsc12 [Example 261, N-((1r,4r)-4-((2,2-difluoroethyl)amino)cyclohexyl)-5-(1H-imidazol-1-yl)thieno[2,3-c]pyridine-7-carboxamide] | < 10 nM
5 | CN(C)C(=O)CO[C@H]1CC[C@H](NC(=O)c2nc(-n3ccnc3)cc3cn[nH]c23)CC1 [Example 202, N-((1r,4r)-4-(2-(dimethylamino)-2-oxoethoxy)cyclohexyl)-5-(1H-imidazol-1-yl)-1H-pyrazolo[3,4-c]pyridine-7-carboxamide] | 10 to 100 nM
6 | CC(C)(N[C@H]1CC[C@H](NC(=O)c2nc(-n3ccnc3)nc3cn[nH]c23)CC1)C(F)(F)F [Example 276, 5-(1H-imidazol-1-yl)-N-((1r,4r)-4-((1,1,1-trifluoro-2-methylpropan-2-yl)amino)cyclohexyl)-1H-pyrazolo[4,3-d]pyrimidine-7-carboxamide] | 10 to 100 nM
7 | O=C(Nc1ccc(OCC(F)(F)F)nc1)c1nc(-n2ccnc2)cc2cn[nH]c12 [Example 231, 5-(1H-imidazol-1-yl)-N-(6-(2,2,2-trifluoroethoxy)pyridin-3-yl)-1H-pyrazolo[3,4-c]pyridine-7-carboxamide] | < 10 nM
8 | COCCO[C@H]1CC[C@H](NC(=O)c2nc(-n3cnc(C)c3)nc3cc[nH]c23)CC1 [Example 37, N-((1r,4r)-4-(2-methoxyethoxy)cyclohexyl)-2-(4-methyl-1H-imidazol-1-yl)-5H-pyrrolo[3,2-d]pyrimidine-4-carboxamide] | > 1000 nM
9 | CC(C)(C#N)c1ccc(NC(=O)c2nc(-n3ccnc3)nc3cc[nH]c23)cc1 [Example 118, N-[4-(1-cyano-1-methyl-ethyl)phenyl]-2-imidazol-1-yl-5H-pyrrolo[3,2-d]pyrimidine-4-carboxamide] | < 10 nM
10 | CC(=O)N1CCC(NC(=O)c2nc(-n3ccnc3)nc3cc[nH]c23)CC1 [Example 64, N-(1-Acetylpiperidin-4-yl)-2-(1H-imidazol-1-yl)-5H-pyrrolo[3,2-d]pyrimidine-4-carboxamide] | 10 to 100 nM
11 | COCCO[C@H]1CC[C@H](NC(=O)c2cc(-c3cncs3)cc3cc(C)[nH]c23)CC1 [Example 45, N-((1r,4r)-4-(2-Methoxyethoxy)cyclohexyl)-2-methyl-5-(thiazol-5-yl)-1H-indole-7-carboxamide] | 100 to 1000 nM
12 | CNC(=O)c1nc(-n2ccnc2)nc2cc[nH]c12 [Example 70, 2-(1H-Imidazol-1-yl)-N-methyl-5H-pyrrolo[3,2-d]pyrimidine-4-carboxamide] | 100 to 1000 nM
13 | C[C@](O)(C(=O)NC1CCC(NC(=O)c2nc(-n3ccnc3)nc3cc[nH]c23)CC1)C(F)(F)F (stereo partly drawn) [Example 127b, 2-(1H-imidazol-1-yl)-N-((1R,4r)-4-((S)-3,3,3-trifluoro-2-hydroxy-2-methylpropanamido)cyclohexyl)-5H-pyrrolo[3,2-d]pyrimidine-4-carboxamide] | 10 to 100 nM
14 | O=C(N[C@H]1CC[C@H](C2(O)CC2)CC1)c1nc(-n2ccnc2)cc2ccsc12 [Example 263, N-((1r,4r)-4-(1-hydroxycyclopropyl)cyclohexyl)-5-(1H-imidazol-1-yl)thieno[2,3-c]pyridine-7-carboxamide] | < 10 nM
15 | O=C(N[C@H]1CC[C@H](NCC(F)F)CC1)c1nc(-n2ccnc2)nc2ccsc12 [Example 221, N-((1r,4r)-4-(2,2-difluoroethylamino)cyclohexyl)-2-(1H-imidazol-1-yl)thieno[3,2-d]pyrimidine-4-carboxamide] | 10 to 100 nM
16 | O=C(N[C@H]1CC[C@H](CO)CC1)c1nc(-n2ccnc2)nc2cc[nH]c12 [Example 174] | < 10 nM
17 | COCCO[C@H]1CC[C@H](NC(=O)c2nc(-n3ccnc3)cc3cn(C)nc23)CC1 [Example 196, 5-(1H-imidazol-1-yl)-N-((1r,4r)-4-(2-methoxyethoxy)cyclohexyl)-2-methyl-2H-pyrazolo[3,4-c]pyridine-7-carboxamide] | 10 to 100 nM
18 | O=C(Nc1ccc(Cl)nc1)c1nc(-n2ccnc2)nc2cc[nH]c12 [Example 137] | < 10 nM
19 | Cc1cc2cc(-c3cncs3)cc(C(=O)NCc3c(F)cccc3C(F)(F)F)c2[nH]1 [Example 11, N-(2-Fluoro-6-(trifluoromethyl)benzyl)-2-methyl-5-(thiazol-5-yl)-1H-indole-7-carboxamide] | 10 to 100 nM

Row | SMILES | IC50
20 | CO[C@H]1CC[C@H](NC(=O)c2nc(-n3ccnc3)nc3cc[nH]c23)CC1 [Example 58, 2-(1H-Imidazol-1-yl)-N-((1r,4r)-4-methoxycyclohexyl)-5H-pyrrolo[3,2-d]pyrimidine-4-carboxamide] | < 10 nM
21 | CC(=O)NC[C@H]1CC[C@H](NC(=O)c2nc(-n3ccnc3)nc3cc[nH]c23)CC1 [Example 114, N-((1r,4r)-4-(acetamidomethyl)cyclohexyl)-2-(1H-imidazol-1-yl)-5H-pyrrolo[3,2-d]pyrimidine-4-carboxamide] | < 10 nM
22 | CC(C)(O)[C@H]1C[C@H](NC(=O)c2nc(-n3ccnc3)nc3cn[nH]c23)C1 [Example 265, N-((1r,3r)-3-(2-hydroxypropan-2-yl)cyclobutyl)-5-(1H-imidazol-1-yl)-1H-pyrazolo[4,3-d]pyrimidine-7-carboxamide] | 10 to 100 nM
23 | COCCO[C@H]1CC[C@H](NC(=O)c2nc(-n3ccnc3)nc3nc[nH]c23)CC1 [Example 14, 2-(1H-Imidazol-1-yl)-N-((1r,4r)-4-(2-methoxyethoxy)cyclohexyl)-7H-purine-6-carboxamide] | 10 to 100 nM
24 | O=C(NC1CCCCCC1)c1nc(-n2ccnc2)nc2cc[nH]c12 [Example 92, N-Cycloheptyl-2-(1H-imidazol-1-yl)-5H-pyrrolo[3,2-d]pyrimidine-4-carboxamide] | < 10 nM
25 | O=C(NCc1c(F)cccc1C(F)(F)F)c1nc(-c2cncs2)nc2ccsc12 [Example 20, N-(2-Fluoro-6-(trifluoromethyl)benzyl)-2-(thiazol-5-yl)thieno [3,2-d]pyrimidine-4-carboxamide] | 100 to 1000 nM
26 | COCCO[C@H]1CC[C@H](NC(=O)c2cc(-c3cncs3)cc3nc(C)[nH]c23)CC1 [Example 13, N-((1r,4r)-4-(2-Methoxyethoxy)cyclohexyl)-2-methyl-5-(thiazol-5-yl)-1H-benzo[d]imidazole-7-carboxamide] | 100 to 1000 nM
27 | N#CCO[C@H]1CC[C@H](NC(=O)c2nc(-n3ccnc3)nc3cc[nH]c23)CC1 [Example 104, N-((1r,4r)-4-(cyanomethoxy)cyclohexyl)-2-(1H-imidazol-1-yl)-5H-pyrrolo[3,2-d]pyrimidine-4-carboxamide] | < 10 nM
28 | CC(C)(O)[C@H]1CC[C@H](NC(=O)c2nc(-n3ccnc3)cc3ccsc23)CC1 [Example 260, N-((1r,4r)-4-(2-hydroxypropan-2-yl)cyclohexyl)-5-(1H-imidazol-1-yl)thieno[2,3-c]pyridine-7-carboxamide] | < 10 nM
29 | O=C(Nc1cn[nH]c1)c1nc(-n2ccnc2)nc2cc[nH]c12 [Example 98, 2-(1H-Imidazol-1-yl)-N-(1H-pyrazol-4-yl)-5H-pyrrolo[3,2-d]pyrimidine-4-carboxamide] | < 10 nM
30 | O=C(N[C@H]1CC[C@H](C2(O)CC2)CC1)c1nc(-n2ccnc2)nc2cn[nH]c12 [Example 238, N-((1r,4r)-4-(1-hydroxycyclopropyl)cyclohexyl)-5-(1H-imidazol-1-yl)-1H-pyrazolo[4,3-d]pyrimidine-7-carboxamide] | < 10 nM
31 | N#CC[C@H]1CC[C@H](NC(=O)c2nc(-n3ccnc3)nc3cc[nH]c23)CC1 [Example 185] | < 10 nM
32 | C[C@@H](O)CO[C@H]1CC[C@H](NC(=O)c2nc(-n3ccnc3)nc3cc[nH]c23)CC1 (single isomer, unassigned) [Example 125a] | 10 to 100 nM
33 | COCCOc1ccc(NC(=O)c2nc(-n3ccnc3)nc3cc[nH]c23)cc1 [Example 63, 2-(1H-Imidazol-1-yl)-N-(4-(2-methoxyethoxy)phenyl)-5H-pyrrolo[3,2-d]pyrimidine-4-carboxamide] | < 10 nM
34 | CNCCO[C@H]1CC[C@H](NC(=O)c2nc(-n3ccnc3)nc3cc[nH]c23)CC1 [Example 71, 2-(1H-Imidazol-1-yl)-N-((1r,4r)-4-(2-(methylamino)ethoxy)cyclohexyl)-5H-pyrrolo[3,2-d]pyrimidine-4-carboxamide] | 10 to 100 nM
35 | COCCO[C@H]1CC[C@H](NC(=O)c2cc(-n3ccnc3)nc3cc[nH]c23)CC1 [Example 10, 5-(1H-imidazol-1-yl)-N-((1r,4r)-4-(2-methoxyethoxy)cyclohexyl)-1H-pyrrolo[3,2-b]pyridine-7-carboxamide] | 10 to 100 nM
36 | COCCO[C@H]1CC[C@H](NC(=O)c2cc(-n3ccnc3)cc3cc(CN)[nH]c23)CC1 [Example 19, 2-(Aminomethyl)-5-(1H-imidazol-1-yl)-N-((1r,4r)-4-(2-methoxyethoxy)cyclohexyl)-1H-indole-7-carboxamide] | 10 to 100 nM
37 | COCCN(C)[C@H]1CC[C@H](NC(=O)c2nc(-n3ccnc3)nc3cc[nH]c23)CC1 [Example 57, 2-(1H-Imidazol-1-yl)-N-((1r,4r)-4-((2-methoxyethyl)(methyl)amino)cyclohexyl)-5H-pyrrolo[3,2-d]pyrimidine-4-carboxamide] | 10 to 100 nM
